Data published in article PMC11847541, “Liver fatty acid binding protein FABP1 transfers substrates to cytochrome P450 4A11 for catalysis” (The Journal of Biological Chemistry, 2025).

Target: T1, P450 4A11 (Homo sapiens, UniProt Q02928)
T1 sequence (Q02928 5-519): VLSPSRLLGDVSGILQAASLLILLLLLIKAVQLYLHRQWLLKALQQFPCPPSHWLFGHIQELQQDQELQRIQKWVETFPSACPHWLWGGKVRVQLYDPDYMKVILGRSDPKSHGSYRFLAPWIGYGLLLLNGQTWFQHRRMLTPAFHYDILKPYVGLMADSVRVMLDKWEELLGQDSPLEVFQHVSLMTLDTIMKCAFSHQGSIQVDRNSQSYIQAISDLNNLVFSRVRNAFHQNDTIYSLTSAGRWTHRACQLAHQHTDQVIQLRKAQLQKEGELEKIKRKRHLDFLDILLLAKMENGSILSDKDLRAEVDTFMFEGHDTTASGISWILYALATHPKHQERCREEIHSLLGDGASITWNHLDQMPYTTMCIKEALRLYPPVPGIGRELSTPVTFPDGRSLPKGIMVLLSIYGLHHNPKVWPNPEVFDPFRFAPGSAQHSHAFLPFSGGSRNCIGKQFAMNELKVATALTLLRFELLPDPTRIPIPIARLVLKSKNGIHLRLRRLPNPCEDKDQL
Test: Stopped-flow kinetics of palmitate binding to P450 4A11 (type I shift)
Design: made in house; host or cells: E. coli
Conditions: P450 4A11 1 μM, palmitate 5 μM; read-out: kon to P450 4A11 (k1)
Experimental: To assess the rates of lipid binding to P450 4A11 (k1), type I spectral shift (from ∼420 nm to ∼390 nm, described previously) was monitored after rapid mixing of P450 and palmitate (Fig. 9A, magenta [substrate free], blue [substrate bound]). When P450 4A11 (1 μM) was mixed with palmitate (5 μM), slow binding kinetics were observed (Fig. 9B). Single exponential fitting of the data yielded a binding rate of 0.21 ± 0.03 s^−1 (kon = k1 = 4.2 ± 0.6 × 10^4 M^−1 s^−1).
Figure 9 Kinetics of fatty acid binding to P450 4A11.A, spectra were collected with 1 μM P450 4A11 (purple line) to which 5 μM palmitate (blue line) and 50 μM ketoconazole (red line) were successively added to induce characteristic P450 “type I” and “type II” spectral shifts, respectively. B, P450 4A11 (1 μM) was rapidly mixed with palmitate (5 μM), and the P450 blue shift (A) was monitored and fit to an exponential equation (blue line) yielding a kon value of 0.21 ± 0.03 s^−1. C, 16-OH palmitate (4 μM) and D, palmitate (10 μM) were preincubated with P450 4A11 (2 μM) and rapidly mixed with ketoconazole (100 μM), and the P450 red shift (part A) was monitored and fit to biexponential equations (red lines). […]
On-rates (kon) to P450 4A11 with lipids were determined by monitoring the hypsochromic (“blue,” “type I”) shift in the heme Soret (A418 [hexacoordinated] → A390 [pentacoordinated]) as substrate binds. […]

kon: 42000 ± 6e+07 M⁻¹ s⁻¹
Compound: CCCCCCCCCCCCCCCC(=O)O [Palmitate (C16), palmitate]
